The source of these data is patent publication US12251366B1, “Sulforaphane-cysteine for wound healing in diabetic subjects” (KUWAIT UNIVERSITY, priority 2024, dated 2025).

In assay [1] the test system is wound fibroblasts (DF, CF-GP). As to the kind of experiment: Cell viability assay, H2O2 cytotoxicity in wound fibroblasts. It counts as cell-based, rat. Conditions: 1.5 to 5 μM. As for the experimental part: To determine if SFN-Cys is involved in cellular detoxification of oxidant load, wound fibroblasts derived from the granulation tissue of control and diabetic animals with H2O2 were measured for their abilities to survive acute oxidative stress in the presence or absence of SFN-Cys. […] Moreover, CF exposed for 72 hours to high glucose (25 mmole/L and palmitate 200 μmole/L, CF-GP) to mimic the diabetic state produced analogous results to those seen with DF as illustrated in FIG. 2A. Supplementing DF and CF-GP with SFN-Cys at a dose of 1.5 to 5 μM eliminated the reactive oxygen species difference between these cells and enhanced DF and CF-GP resistance to H2O2(FIG. 2A).
Control and diabetic fibroblasts were isolated from wounds inflicted on control Wistar rats (CF) or Goto kakazaki rats (GK), a model of non-obese type 2 diabetes. All information regarding the GK rats and the preparation and culturing of control (CF) and diabetic (DF) fibroblasts was described in detailed in previous publications, Bitar, M S, and Mulla, F. Am J Phyaiol. […]
The response of CF and DF to H2O2 cytotoxicity was measured by seeding the cells into 96-well plates at a density of 5×10^3 to 8×10^3 cells per well and were allowed to adhere overnight in 10% FCS-DMEM medium. […] Cell viability was measured using WST-1 (Dojindo, USA;) according to the manufacturer's instructions.

Assay [2] concerns NQO1. As to the kind of experiment: mRNA expression of Nrf2 target gene NQO1 in fibroblasts. Conditions: diabetic fibroblasts, 1.5 μM. The format is cell-based, rat. As for the experimental part: To better characterize how SFN-Cys impacts cellular antioxidant levels, the ability of SFN-Cys to regulate the transcription factor nuclear factor erythroid 2-related factor 2 (Nrf2) was assessed, which is a master regulator of the antioxidative stress response that induces the expression of antioxidant proteins such as heme oxygenase (HO) and NAD(P)H dehydrogenase (quinine; NQO1) and key enzymes in the glutathione system. In this context, Nrf2 transcriptional activity was first measured using a vector encoding luciferase driven by the NQO1 promoter. […] Administration of SNF-Cyst at the above indicated concentration (1.5 μM, the lowest effective concentration) ameliorated diabetes-induced suppression of the Nrf2 activity and Nrf2-target genes including HO and NQO1 (FIG. 2A-D).
(§1) Total RNA from cells or frozen sponge implants was extracted using the Trizol reagent (Invitrogen), and the RNA integrity was verified by agarose gel electrophoresis. […] The amplified sequences were assessed using the ABI 7500 Prism Sequence Detection system machine. The results were expressed as mRNA levels normalized to 18S or GAPDH in each sample.

For assay [3], the system named is fibroblasts (CF, DF). As to the kind of experiment: In vitro wound healing repair assay (cell migration). It counts as cell-based, rat. Conditions: 1.5 μM, 24 hrs. Here is the method:
Successful wound healing necessitates a series of tightly coordinated and overlapping processes including inflammation, new tissue formation and remodeling. Fibroblasts, in response to growth factors-released mostly by macrophages, migrate to the site of injury, where they proliferate and lay down the extracellular matrix (ECM). Consequently, this facilitates cell migration and tissue reconstruction. The effect of a therapeutic concentration of SFN-Cys (1.5 μM) was investigated on the proliferation of fibroblasts isolated from the granulation tissue of control and diabetic wounds. Similarly, the effect of SFN-Cys on cell migration in the in vitro wound closure assay was also considered. […] Accordingly, in vivo wound closure properties of SFN-Cys were examined using an excisional wound healing rat model. SFN-Cys containing Pluronic acid was topically applied to the wound at a dose of 1.5 μmol concentration and the wound closure area was digitally photographed and quantified. Digital photographs were obtained on day-0 through day-7 of post wounding. […] In this context, the wound healing time-course was faster in SFN-Cys containing Pluronic acid than the Pluronic acid alone (FIG. 3C). […]
Fibroblasts (1×10^5/well) were cultured until confluence. […] The closure of the wounded area was calculated using Image J software (NIH). Data are expressed as a percent of wound closure.

Assay [4] relates to full-thickness wounds. In words: In vivo wound closure assay, excisional wound healing rat model. The arrangement: species or system GK rats. The conditions noted are these: for mitigation of diabetes-related impairment of wound healing compared with VEGF: animal model of (aged) type 2 diabetes; for wound closure / wound healing: rats, topical 1.5 μmol/wound in Pluronic acid every other day, day-0 through day-7. Here is the method: Successful wound healing necessitates a series of tightly coordinated and overlapping processes including inflammation, new tissue formation and remodeling. Fibroblasts, in response to growth factors-released mostly by macrophages, migrate to the site of injury, where they proliferate and lay down the extracellular matrix (ECM). Consequently, this facilitates cell migration and tissue reconstruction. The effect of a therapeutic concentration of SFN-Cys (1.5 μM) was investigated on the proliferation of fibroblasts isolated from the granulation tissue of control and diabetic wounds. Similarly, the effect of SFN-Cys on cell migration in the in vitro wound closure assay was also considered. […] Accordingly, in vivo wound closure properties of SFN-Cys were examined using an excisional wound healing rat model. SFN-Cys containing Pluronic acid was topically applied to the wound at a dose of 1.5 μmol concentration and the wound closure area was digitally photographed and quantified. Digital photographs were obtained on day-0 through day-7 of post wounding. […] In this context, the wound healing time-course was faster in SFN-Cys containing Pluronic acid than the Pluronic acid alone (FIG. 3C). […] VEGF is a well-established enhancer of the proliferative phase of healing.
For wounding experiments, 15-18-month female GK rats were anesthetized with intraperitoneal injection of ketamine/xylazine and full-thickness wounds were made in the mid dorsal skin with 8-mm disposable punches. To evaluate the effect of SFN-Cys on wound closure, the drug was dissolved initially with DMSO and then diluted with a 25% Pluronic acid solution at a dose of 1.5 μmol/wound; applied topically to the wound every other day. The wounds were photographed at 0-, 3- or 7-days post-wounding.

Assay [5] has as its system heme oxygenase. In words: Tissue mRNA expression of heme oxygenase after SFN-Cys diet. It counts as in vivo. Conditions: heart, kidney, liver and skin; SFN-Cys diet 1.5-2.5 μmol/mouse, 21 days. Here is the method:
(§2) Testing the pharmacodynamic and toxicodynamic properties of SFN-Cys dictated the mixing SFN-Cys with a powdered diet. The estimated dose delivered by this diet was 1.5-2.5 μmol/mouse (n=4). The SFN-Cys diet was stored at 4° C. and the feeders were refilled daily for the duration of the study (21 days). Corresponding animals received food without the drug.
(§3) For dietary treatment with SFN-Cys, the SFN-Cys was mixed with a powdered diet (7.5 mg of SFN-Cys per kg of food). The estimated dose delivered by this diet was about 1.0-1.5 mg/kg. The diet was stored at 4° C. and the feeders were refilled daily. Control animals received diet alone. Body weights were recorded twice a week and at the termination of the study, blood was drawn in EDTA-containing tubes, plasma was collected by centrifugation and stored at −80° C. until analysis.
as §1

For assay [6], the system named is NQO1. In words: Tissue mRNA expression of NQO1 after SFN-Cys diet. Conditions: heart, kidney, liver and skin; SFN-Cys diet 1.5-2.5 μmol/mouse, 21 days. The format is in vivo. As for the experimental part: as §2, §3, §1
The test system of assay [7] is endothelial nitric oxide. In words: Endothelial nitric oxide activity and expression in corpus cavernosum. The format is in vivo. From the text: (§4) Therapeutic rational was considered for SFN-Cys effectiveness in the following pathological conditions: Sarcopenia-SFN-Cys increased muscle weight in diabetic mice, see FIGS. 4A and 4B; Cardiac fibrosis-SFN-Cys inhibits transforming growth factor beta (TGF-β) expression, see FIG. 4C; Erectile dysfunction-SFN-Cys increased endothelial nitric oxide activity and expression in corpus cavernosum.

Assay [8] can be described thus: Pain threshold in diabetic rats (diabetic neuropathy). Conditions: 5 μmol/rat. The format is in vivo.
From the text: as §4

“Also recorded” adds a separate entry of the source.

Turning to `C[S+]([O-])CCCCNC(=S)SCC(N)C(=O)O` (stereo not shown) [SFN-Cys, Sulforaphane-Cysteine], in assay [1], the “reactive oxygen species difference between DF/CF-GP and control fibroblasts” value is “eliminated”. Moreover, the “resistance to H2O2 (cell viability)” value in assay [1] (DF and CF-GP, H2O2 400 μmol/L 4 hours, WST-1) is given as “enhanced”. For the same molecule, the “mRNA expression of Nrf2 target gene NQO1” value in assay [2] is recorded as “ameliorated”. Further, the “percentage of increase in cell migration, diabetics versus controls” value in assay [3] is recorded as “greater in diabetics as compared to controls”. Also, the “cell migration (in vitro wound closure)” value in assay [3] (CF and DF) is recorded as “enhanced cell migration not only in control but also in diabetic fibroblasts”. For the same molecule, in assay [4], the “mitigation of diabetes-related impairment of wound healing compared with VEGF” value was “better than vascular endothelial growth factor (VEGF)”; the “wound closure / wound healing” value was “enhanced wound closure; also recorded: ameliorated; also recorded: increases wound healing potential both in control and diabetic subjects”. In assay [4] (listed as SNF-Cys), the “mitigation of diabetes-related impairment of wound healing compared with VEGF” value is recorded as “more efficacious than vascular endothelial growth factor (VEGF)” and the “wound closure / wound healing” value is “ameliorated”. The “mRNA expression of heme oxygenase relative to control” value in assay [5] is given as “about 3 folds”. In assay [6], the “mRNA expression of NQO1 relative to control” value is given as “about 3 folds”. Besides, in assay [7], the “endothelial nitric oxide activity and expression” value is reported as “increased”. The pain threshold result in assay [8] is “elevated”.
